Results reported in patent publication US20220062243A1, “P14-Kinase Inhibitors with Anti-Cancer Activity” (The Board of Trustees of the Leland Stanford Junior …, priority 2019, published 2022).

Biological target: PI4K-IIIβ (Homo sapiens, UniProt Q9UBF8)
Assay: PI-kinase assay (membrane capture assay for lipid kinase activity), PI4KIIIβ
Format: biochemical
Settings: read-out: PI4KIIIβ kinase activity (IC50 class)
Experimental: PI4-kinase inhibition can be determined by a kinase activity assay, e.g., by an assay that determines the level of incorporation of radiolabeled phosphate from [γ-^32P]-ATP into a substrate molecule after treatment with a subject compound, relative to a control, by measuring the beta-particle emission rate using a scintillation counter or phosphorimaging.
PI-kinase assay: Compounds are tested in C.1.1. PI kinase assays as described by Shokat et al., “A membrane capture assay for lipid kinase activity.” Nat. Protoc. […] Selected compounds of Table 1 and 2 were prepared and tested for inhibition activity in a variety of kinase assays.

Sequence of PI4K-IIIβ (Q9UBF8 whole entry): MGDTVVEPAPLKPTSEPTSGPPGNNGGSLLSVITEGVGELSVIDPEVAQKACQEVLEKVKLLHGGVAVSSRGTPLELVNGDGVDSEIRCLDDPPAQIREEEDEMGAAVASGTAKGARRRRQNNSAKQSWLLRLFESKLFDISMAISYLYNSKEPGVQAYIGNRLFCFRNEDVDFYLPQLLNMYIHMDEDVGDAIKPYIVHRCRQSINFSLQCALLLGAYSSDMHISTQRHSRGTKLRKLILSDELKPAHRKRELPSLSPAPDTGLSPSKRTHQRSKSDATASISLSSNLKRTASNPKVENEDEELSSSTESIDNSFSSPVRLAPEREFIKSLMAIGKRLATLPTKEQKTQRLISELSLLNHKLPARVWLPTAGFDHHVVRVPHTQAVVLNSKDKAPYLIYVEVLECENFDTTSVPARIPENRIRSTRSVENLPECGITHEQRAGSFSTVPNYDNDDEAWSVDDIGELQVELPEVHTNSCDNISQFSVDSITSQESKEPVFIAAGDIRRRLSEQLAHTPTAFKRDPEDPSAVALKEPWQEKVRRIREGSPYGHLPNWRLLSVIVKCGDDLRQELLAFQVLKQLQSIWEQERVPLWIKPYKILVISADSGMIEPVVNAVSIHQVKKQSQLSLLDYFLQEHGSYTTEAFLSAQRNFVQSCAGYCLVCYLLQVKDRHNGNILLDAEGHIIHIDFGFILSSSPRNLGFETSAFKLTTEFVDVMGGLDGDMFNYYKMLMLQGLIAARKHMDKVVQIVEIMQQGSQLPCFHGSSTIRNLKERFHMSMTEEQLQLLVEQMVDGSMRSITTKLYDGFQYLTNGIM

| IC50 [nM] | Compound |
| --- | --- |
| < 100 | COc1ccc(-c2sc(NCC3CCCCC3)nc2C)cc1S(=O)(=O)NC1CCN(C2CCCCC2)CC1 [Compound S-136, 5-[2-(cyclohexylmethylamino)-4-methyl-thiazol-5-yl]-N-(1-cyclohexyl-4-piperidyl)-2-methoxy-benzenesulfonamide] |
| < 100 | COc1ccc(-c2sc(NC(=O)CC3CCOCC3)nc2C)cc1S(=O)(=O)Nc1ccccc1F [Compound S-230, N-[5-[3-[(2-fluorophenyl)sulfamoyl]-4-methoxy-phenyl]-4-methyl-thiazol-2-yl]-2-tetrahydropyran-4-yl-acetamide] |
| 100 to 1000 | COc1ccc(-c2sc(N[C@H](C)C3CCCCC3)nc2C)cc1S(=O)(=O)N[C@H]1CC[C@@H](O)CC1 [Compound S-198, 5-[2-[[(1R)-1-cyclohexylethyl]amino]-4-methyl-thiazol-5-yl]-N-(4-hydroxycyclohexyl)-2-methoxy-benzenesulfonamide] |
| < 100 | COc1ccc(-c2sc(NCC3CCCCC3)nc2C)cc1S(=O)(=O)NC1CCN(C2CC2)CC1 [Compound S-135, 5-[2-(cyclohexylmethylamino)-4-methyl-thiazol-5-yl]-N-(1-cyclopropyl-4-piperidyl)-2-methoxy-benzenesulfonamide] |
| < 100 | COc1ccc(-c2sc(NCC(C)C)nc2C)cc1S(=O)(=O)NC1CCCC(O)C1 (centres unmarked) [Compound S-223, N-(3-hydroxycyclohexyl)-5-[2-(isobutylamino)-4-methyl-thiazol-5-yl]-2-methoxy-benzenesulfonamide;2,2,2-trifluoroacetic acid] |
| < 100 | COc1ccc(-c2sc(N[C@H](C)C3CCCCC3)nc2C)cc1S(=O)(=O)N[C@@H]1CCNC1 [Compound S-197, 5-[2-[[(1R)-1-cyclohexylethyl]amino]-4-methyl-thiazol-5-yl]-2-methoxy-N-[(3R)-pyrrolidin-3-yl]benzenesulfonamide] |
| < 100 | COc1ccc(-c2sc(NCC(C)C)nc2C)cc1S(=O)(=O)N[C@H]1CC[C@H](O)CC1 [Compound S-221, N-(4-hydroxycyclohexyl)-5-[2-(isobutylamino)-4-methyl-thiazol-5-yl]-2-methoxy-benzenesulfonamide] |
| < 100 | COc1ncc(-c2sc(NC(=O)CC3CCOCC3)nc2C)cc1S(=O)(=O)Nc1ccc(O)cc1 [Compound S-261] |
| < 100 | COc1ncc(-c2sc(NC(=O)CC3CCOCC3)nc2C)cc1S(=O)(=O)N[C@H]1CC[C@@H](O)CC1 [Compound S-262] |
| < 100 | COc1ccc(-c2sc(NC(=O)CC3CCCC3)nc2C)cc1S(=O)(=O)N1CC[C@@H](O)C1 [Compound S-153, 2-cyclopentyl-N-[5-[3-[(3R)-3-hydroxypyrrolidin-1-yl]sulfonyl-4-methoxy-phenyl]-4-methyl-thiazol-2-yl]acetamide] |
| < 100 | COc1ccc(-c2sc(N[C@H](C)C3CCCCC3)nc2C)cc1S(=O)(=O)NC1CCNCC1 [Compound S-147, 5-[2-[[(1R)-1-cyclohexylethyl]amino]-4-methyl-thiazol-5-yl]-2-methoxy-N-(4-piperidyl)benzenesulfonamide] |
| 100 to 1000 | COc1ccc(-c2sc(NC3CCCCC3)nc2C)cc1S(=O)(=O)NC1CCCCCC1 [Compound S-131, N-cycloheptyl-5-[2-(cyclohexylamino)-4-methyl-thiazol-5-yl]-2-methoxy-benzenesulfonamide] |
| < 100 | COc1ccc(-c2sc(N[C@@H](C)C3CCCCC3)nc2C)cc1S(=O)(=O)N[C@H]1CC[C@H](O)CC1 [Compound S-183, 5-[2-[[(1S)-1-cyclohexylethyl]amino]-4-methyl-thiazol-5-yl]-N-(4-hydroxycyclohexyl)-2-methoxy-benzenesulfonamide] |
| < 100 | COc1ccc(-c2sc(NC(=O)CC3CCCC3)nc2C)cc1S(=O)(=O)NC1CCCNC1 (centres unmarked) [Compound S-173, 2-cyclopentyl-N-[5-[4-methoxy-3-(3piperidylsulfamoyl)phenyl]-4-methyl-thiazol-2-yl]acetamide;2,2,2-trifluoroacetic acid] |
| 1000 to 10000 | COc1ncc(-c2sc(NC(=O)CC3CCOCC3)nc2C)cc1S(=O)(=O)Nc1ccc(F)cc1F [Compound S-258] |
| < 100 | COc1ccc(-c2sc(NCC(C)C)nc2C)cc1S(=O)(=O)N[C@H]1CC[C@@H](O)CC1 [Compound S-222, N-(4-hydroxycyclohexyl)-5-[2-(isobutylamino)-4-methyl-thiazol-5-yl]-2-methoxy-benzenesulfonamide] |
| < 100 | COc1ccc(-c2sc(NC(=O)CC3CCCC3)nc2C)cc1S(=O)(=O)Nc1ccc(O)cc1 [Compound S-1, 2-cyclopentyl-N-[5-[3-[(4-hydroxyphenyl)sulfamoyl]-4-methoxy-phenyl]-4-methyl-thiazol-2-yl]acetamide] |
| < 100 | COc1ccc(-c2sc(NC3CCCCC3)nc2C)cc1S(=O)(=O)N[C@H]1CC[C@@H](O)CC1 [Compound S-167, 5-[2-(cyclohexylamino)-4-methyl-thiazol-5-yl]-N-(4-hydroxycyclohexyl)-2-methoxy-benzenesulfonamide] |
| < 100 | COc1ccc(-c2sc(N[C@H](C)C3CCCCC3)nc2C)cc1S(=O)(=O)N[C@H]1CC[C@H](O)CC1 [Compound S-193, 5-[2-[[(1R)-1-cyclohexylethyl]amino]-4-methyl-thiazol-5-yl]-N-(4-hydroxycyclohexyl)-2-methoxy-benzenesulfonamide] |
| < 100 | COc1ncc(-c2sc(NC(=O)CC3CCOCC3)nc2C)cc1S(=O)(=O)Nc1ccc(F)cc1F [Compound S-260] |
| 100 to 1000 | COc1ccc(-c2sc(NCC3CCCCC3)nc2C)cc1S(=O)(=O)NC1CC1 [Compound S-127, 5-[2-(cyclohexylmethylamino)-4-methyl-thiazol-5-yl]-N-cyclopropyl-2-methoxy-benzenesulfonamide] |
| < 100 | COc1ccc(-c2sc(NC(=O)Cc3ccccc3)nc2C)cc1S(=O)(=O)Nc1ccc(O)cc1 [Compound S-49, N-[5-[3-[(4-hydroxyphenyl)sulfamoyl]-4-methoxy-phenyl]-4-methyl-thiazol-2-yl]-2-phenyl-acetamide] |

Biological target: PI4KIIIα (Homo sapiens, UniProt P42356)
Assay: not given
Settings: weak inhibition; cited from earlier work

Sequence of PI4KIIIα (P42356 whole entry): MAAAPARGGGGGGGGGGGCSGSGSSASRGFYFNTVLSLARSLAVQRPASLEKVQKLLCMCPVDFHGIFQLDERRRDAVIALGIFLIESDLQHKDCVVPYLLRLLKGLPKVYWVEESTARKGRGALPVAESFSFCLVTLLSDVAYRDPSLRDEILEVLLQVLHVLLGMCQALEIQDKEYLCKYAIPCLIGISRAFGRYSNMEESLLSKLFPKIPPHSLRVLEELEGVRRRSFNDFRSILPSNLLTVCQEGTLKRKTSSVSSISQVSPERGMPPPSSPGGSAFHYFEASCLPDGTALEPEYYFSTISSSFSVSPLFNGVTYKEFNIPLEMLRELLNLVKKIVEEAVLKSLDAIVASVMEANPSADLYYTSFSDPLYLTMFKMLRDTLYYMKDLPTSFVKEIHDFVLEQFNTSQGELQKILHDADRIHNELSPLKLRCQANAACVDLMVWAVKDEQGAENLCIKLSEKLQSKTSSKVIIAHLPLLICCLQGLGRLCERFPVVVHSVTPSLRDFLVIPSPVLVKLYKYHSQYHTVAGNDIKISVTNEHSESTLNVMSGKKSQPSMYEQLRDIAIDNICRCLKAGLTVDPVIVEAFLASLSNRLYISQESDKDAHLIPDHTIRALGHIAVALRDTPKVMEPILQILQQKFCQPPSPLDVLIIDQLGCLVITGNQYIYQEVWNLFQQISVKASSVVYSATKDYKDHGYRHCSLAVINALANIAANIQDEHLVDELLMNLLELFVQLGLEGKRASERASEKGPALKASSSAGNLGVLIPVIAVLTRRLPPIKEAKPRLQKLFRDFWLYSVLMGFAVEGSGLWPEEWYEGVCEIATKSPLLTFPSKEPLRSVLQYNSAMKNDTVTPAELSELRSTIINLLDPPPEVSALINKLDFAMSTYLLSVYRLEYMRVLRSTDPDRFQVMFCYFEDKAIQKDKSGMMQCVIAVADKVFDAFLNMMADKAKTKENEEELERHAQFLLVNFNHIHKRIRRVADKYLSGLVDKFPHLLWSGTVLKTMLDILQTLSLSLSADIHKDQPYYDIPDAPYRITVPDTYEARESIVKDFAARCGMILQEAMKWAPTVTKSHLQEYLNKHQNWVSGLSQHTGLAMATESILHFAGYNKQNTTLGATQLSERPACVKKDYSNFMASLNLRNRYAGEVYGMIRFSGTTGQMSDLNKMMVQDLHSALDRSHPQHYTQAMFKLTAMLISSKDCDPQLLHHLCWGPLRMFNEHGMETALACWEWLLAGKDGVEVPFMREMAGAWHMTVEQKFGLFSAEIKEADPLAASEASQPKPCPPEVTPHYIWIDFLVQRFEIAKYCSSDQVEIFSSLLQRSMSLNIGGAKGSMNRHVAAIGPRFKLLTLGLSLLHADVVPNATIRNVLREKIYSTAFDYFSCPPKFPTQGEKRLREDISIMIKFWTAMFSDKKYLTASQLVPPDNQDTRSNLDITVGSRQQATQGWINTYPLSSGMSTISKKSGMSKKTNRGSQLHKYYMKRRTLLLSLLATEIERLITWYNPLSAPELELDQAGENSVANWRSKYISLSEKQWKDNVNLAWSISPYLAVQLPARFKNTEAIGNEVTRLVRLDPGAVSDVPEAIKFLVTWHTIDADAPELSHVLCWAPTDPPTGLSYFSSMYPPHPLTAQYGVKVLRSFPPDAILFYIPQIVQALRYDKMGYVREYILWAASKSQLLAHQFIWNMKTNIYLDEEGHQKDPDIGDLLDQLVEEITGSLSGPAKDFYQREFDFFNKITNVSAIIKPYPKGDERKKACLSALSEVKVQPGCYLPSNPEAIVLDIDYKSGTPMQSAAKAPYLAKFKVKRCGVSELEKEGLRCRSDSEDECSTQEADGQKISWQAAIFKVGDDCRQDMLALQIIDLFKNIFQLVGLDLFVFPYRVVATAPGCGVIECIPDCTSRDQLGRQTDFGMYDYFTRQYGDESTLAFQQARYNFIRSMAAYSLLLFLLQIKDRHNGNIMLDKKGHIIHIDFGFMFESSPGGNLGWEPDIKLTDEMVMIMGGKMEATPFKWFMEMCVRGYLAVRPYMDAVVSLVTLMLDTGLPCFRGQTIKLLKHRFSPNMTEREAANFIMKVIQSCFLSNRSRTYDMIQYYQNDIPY

| Compound | IC50 [nM] |
| --- | --- |
| COc1ccc(-c2sc(NC(=O)C(C)(C)C)nc2C)cc1S(=O)(=O)Nc1ccc(O)cc1 [PI4KIIIbeta-IN-10] | ~3000 |
